Experimental data: patent US6737383B1, “Herbicidal oxadiazolidines” (priority 1999, dated 2004)

Tests used:
blackgrass = test: Test B pre/postemergence blackgrass; assay type: in vivo, Alopecurus myosuroides
Procedure, shortened: (§1)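 Test chemicals in a non-phytotoxic solvent mixture with surfactant were sprayed preemergence onto planted seeds and postemergence onto plants 2 to 18 cm tall (1- to 4-leaf stage). After twelve to sixteen days in a greenhouse, injury was visually rated against untreated controls from 0 (no effect) to 10 (complete control).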

cocklebur = test: Test B pre/postemergence cocklebur; assay type: in vivo, Xanthium strumarium
Procedure, shortened: as §1

corn = test: Test B pre/postemergence corn; assay type: in vivo, Zea mays
Procedure, shortened: as §1

crabgrass = test: Test B pre/postemergence crabgrass; assay type: in vivo, Digitaria sanguinalis
Procedure, shortened: as §1

giant foxtail = test: Test B pre/postemergence giant foxtail; assay type: in vivo, Setaria faberii
Procedure, shortened: as §1

morningglory = test: Test B pre/postemergence morningglory; assay type: in vivo, Ipomoea hederacea
Procedure, shortened: as §1

pigweed = test: Test B pre/postemergence pigweed; assay type: in vivo, Amaranthus retroflexus
Procedure, shortened: as §1

rape = test: Test B pre/postemergence rape; assay type: in vivo, Brassica napus
Procedure, shortened: as §1

soybean = test: Test B pre/postemergence soybean; assay type: in vivo, Glycine max
Procedure, shortened: as §1

sugar beet = test: Test B pre/postemergence sugar beet; assay type: in vivo, Beta vulgaris
Procedure, shortened: as §1

velvetleaf = test: Test B pre/postemergence velvetleaf; assay type: in vivo, Abutilon theophrasti
Procedure, shortened: as §1

wheat = test: Test B pre/postemergence wheat; assay type: in vivo, Triticum aestivum
Procedure, shortened: as §1

purple nutsedge = test: Test B pre/postemergence purple nutsedge; assay type: in vivo, Cyperus rotundus
Procedure, shortened: as §1

rice = test: Test B flood test rice; assay type: in vivo, Oryza sativa
Procedure, shortened: (§2)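 Plants were grown to the 2-leaf stage before treatment with test chemical, then held in a greenhouse for twelve to sixteen days. Injury was visually rated against untreated controls on a 0–10 scale, where 0 is no effect and 10 is complete control.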

smallflower flatsedge = test: Test B flood test smallflower flatsedge; assay type: in vivo, Cyperus difformis
Procedure, shortened: as §2

duck salad = test: Test B flood test duck salad; assay type: in vivo, Heteranthera limosa
Procedure, shortened: as §2

[1] = Preemergence, Rate 62 g/ha, scale of 0 to 10 where 0 is no effect and 10 is complete control
[2] = Preemergence, Rate 250 g/ha, scale of 0 to 10 where 0 is no effect and 10 is complete control
[3] = Preemergence, Rate 500 g/ha, scale of 0 to 10 where 0 is no effect and 10 is complete control
[4] = Rate 62 g/ha, Postemergence, scale of 0 to 10 where 0 is no effect and 10 is complete control
[5] = Rate 125 g/ha, Postemergence, scale 0 to 10
[6] = Rate 125 g/ha, Preemergence, scale of 0 to 10 where 0 is no effect and 10 is complete control
[7] = Rate 500 g/ha, Postemergence, scale 0 to 10, 0 no effect, 10 complete control
[8] = Rate 62 g/ha, headed Pre-emergence (flood test species), scale 0 to 10 (0 no effect, 10 complete control)
[9] = Rate 125 g/ha, Pre-emergence, flood test species, scale 0 to 10 where 0 is no effect and 10 is complete control
[10] = Rate 250 g/ha, Pre-emergence, flood-test species, scale 0 to 10, 0 is no effect, 10 is complete control
[11] = Rate 500 g/ha, Pre-emergence, flood test species, scale 0 to 10 (0 no effect, 10 complete control)

CCCCc1ccc(N(C(=O)n2oc(=O)n(-c3ccccc3C)c2=O)C(C)C)cc1 [Compound 229]
Blackgrass plant response rating (blackgrass; [1]): 0 | Blackgrass plant response rating (blackgrass; [2]): 0 | Plant response rating, Blackgrass (blackgrass; [3]): 0 | Blackgrass plant response rating (blackgrass; [4]): 0 | Blackgrass plant response rating (blackgrass; [5]): 0 | Blackgrass plant response rating (blackgrass; [6]): 0 | Plant response rating (0 to 10; 0 is no effect, 10 is complete control), Blackgrass (blackgrass; Rate 250 g/ha, Postemergence): 0 | Blackgrass plant response rating (blackgrass; [7]): 0 | Cocklebur plant response rating (cocklebur; [1]): 0 | Cocklebur plant response rating (cocklebur; [2]): 0 | Plant response rating, Cocklebur (cocklebur; [3]): 0 | Cocklebur plant response rating (cocklebur; [4]): 0 | Cocklebur plant response rating (cocklebur; [5]): 0 | Cocklebur plant response rating (cocklebur; [6]): 0 | Plant response rating (0 to 10; 0 is no effect, 10 is complete control), Cocklebur (cocklebur; Rate 250 g/ha, Postemergence): 0 | Cocklebur plant response rating (cocklebur; [7]): 0 | Corn plant response rating (corn; [1]): 0 | Corn plant response rating (corn; [2]): 0 | Plant response rating, Corn (corn; [3]): 0 | Corn plant response rating (corn; [4]): 0 | Corn plant response rating (corn; [5]): 0 | Corn plant response rating (corn; [6]): 0 | Plant response rating (0 to 10; 0 is no effect, 10 is complete control), Corn (corn; Rate 250 g/ha, Postemergence): 0 | Corn plant response rating (corn; [7]): 0 | Crabgrass plant response rating (crabgrass; [1]): 0 | Crabgrass plant response rating (crabgrass; [2]): 0 | Plant response rating, Crabgrass (crabgrass; [3]): 0 | Crabgrass plant response rating (crabgrass; [4]): 0 | Crabgrass plant response rating (crabgrass; [5]): 0 | Crabgrass plant response rating (crabgrass; [6]): 0 | Plant response rating (0 to 10; 0 is no effect, 10 is complete control), Crabgrass (crabgrass; Rate 250 g/ha, Postemergence): 0 | Crabgrass plant response rating (crabgrass; [7]): 0 | Giant foxtail plant response rating (giant foxtail; [1]): 0 | Giant foxtail plant response rating (giant foxtail; [2]): 0 | Plant response rating, Giant foxtail (giant foxtail; [3]): 0 | Giant foxtail plant response rating (giant foxtail; [4]): 0 | Giant foxtail plant response rating (giant foxtail; [5]): 0 | Giant foxtail plant response rating (giant foxtail; [6]): 0 | Plant response rating (0 to 10; 0 is no effect, 10 is complete control), Giant foxtail (giant foxtail; Rate 250 g/ha, Postemergence): 0 | Giant foxtail plant response rating (giant foxtail; [7]): 0 | Morningglory plant response rating (morningglory; [1]): 0 | Morningglory plant response rating (morningglory; [2]): 0 | Plant response rating, Morningglory (morningglory; [3]): 0 | Morningglory plant response rating (morningglory; [4]): 0 | Morningglory plant response rating (morningglory; [5]): 0 | Morningglory plant response rating (morningglory; [6]): 0 | Plant response rating (0 to 10; 0 is no effect, 10 is complete control), Morningglory (morningglory; Rate 250 g/ha, Postemergence): 0 | Morningglory plant response rating (morningglory; [7]): 0 | Redroot pigweed plant response rating (pigweed; [1]): 0 | Redroot pigweed plant response rating (pigweed; [2]): 0 | Plant response rating, Redroot pigweed (pigweed; [3]): 0 | Redroot pigweed plant response rating (pigweed; [4]): 0 | Redroot pigweed plant response rating (pigweed; [5]): 0 | Redroot pigweed plant response rating (pigweed; [6]): 0 | Plant response rating (0 to 10; 0 is no effect, 10 is complete control), Redroot pigweed (pigweed; Rate 250 g/ha, Postemergence): 0 | Redroot pigweed plant response rating (pigweed; [7]): 0 | Rape plant response rating (rape; [1]): 0 | Rape plant response rating (rape; [2]): 0 | Plant response rating, Rape (rape; [3]): 0 | Rape plant response rating (rape; [4]): 0 | Rape plant response rating (rape; [5]): 0 | Rape plant response rating (rape; [6]): 0 | Plant response rating (0 to 10; 0 is no effect, 10 is complete control), Rape (rape; Rate 250 g/ha, Postemergence): 0 | Rape plant response rating (rape; [7]): 0 | Soybean plant response rating (soybean; [1]): 0 | Soybean plant response rating (soybean; [2]): 0 | Plant response rating, Soybean (soybean; [3]): 0 | Soybean plant response rating (soybean; [4]): 0 | Soybean plant response rating (soybean; [5]): 0 | Soybean plant response rating (soybean; [6]): 0 | Plant response rating (0 to 10; 0 is no effect, 10 is complete control), Soybean (soybean; Rate 250 g/ha, Postemergence): 1 | Soybean plant response rating (soybean; [7]): 2 | Sugarbeets plant response rating (sugar beet; [1]): 0 | Sugarbeets plant response rating (sugar beet; [2]): 0 | Plant response rating, Sugarbeets (sugar beet; [3]): 0 | Sugarbeets plant response rating (sugar beet; [4]): 0 | Sugarbeets plant response rating (sugar beet; [5]): 0 | Sugarbeets plant response rating (sugar beet; [6]): 0 | Plant response rating (0 to 10; 0 is no effect, 10 is complete control), Sugarbeets (sugar beet; Rate 250 g/ha, Postemergence): 0 | Sugarbeets plant response rating (sugar beet; [7]): 0 | Velvetleaf plant response rating (velvetleaf; [1]): 0 | Velvetleaf plant response rating (velvetleaf; [2]): 0 | Plant response rating, Velvetleaf (velvetleaf; [3]): 0 | Velvetleaf plant response rating (velvetleaf; [4]): 0 | Velvetleaf plant response rating (velvetleaf; [5]): 0 | Velvetleaf plant response rating (velvetleaf; [6]): 0 | Plant response rating (0 to 10; 0 is no effect, 10 is complete control), Velvetleaf (velvetleaf; Rate 250 g/ha, Postemergence): 0 | Velvetleaf plant response rating (velvetleaf; [7]): 2 | Wheat plant response rating (wheat; [1]): 0 | Wheat plant response rating (wheat; [2]): 0 | Plant response rating, Wheat (wheat; [3]): 0 | Wheat plant response rating (wheat; [4]): 0 | Wheat plant response rating (wheat; [5]): 0 | Wheat plant response rating (wheat; [6]): 0 | Plant response rating (0 to 10; 0 is no effect, 10 is complete control), Wheat (wheat; Rate 250 g/ha, Postemergence): 0 | Wheat plant response rating (wheat; [7]): 0 | Nutsedge plant response rating (purple nutsedge; [1]): 0 | Nutsedge plant response rating (purple nutsedge; [2]): 0 | Plant response rating, Nutsedge (purple nutsedge; [3]): 0 | Nutsedge plant response rating (purple nutsedge; [4]): 0 | Nutsedge plant response rating (purple nutsedge; [5]): 0 | Nutsedge plant response rating (purple nutsedge; [6]): 0 | Plant response rating (0 to 10; 0 is no effect, 10 is complete control), Nutsedge (purple nutsedge; Rate 250 g/ha, Postemergence): 0 | Nutsedge plant response rating (purple nutsedge; [7]): 0 | Rice plant response rating (rice; [8]): 0 | Rice plant response rating (rice; [9]): 0 | Rice plant response rating (rice; [10]): 0 | Rice plant response rating (rice; [11]): 0 | S. Flatsedge plant response rating (smallflower flatsedge; [8]): 0 | S. Flatsedge plant response rating (smallflower flatsedge; [9]): 0 | S. Flatsedge plant response rating (smallflower flatsedge; [10]): 0 | S. Flatsedge plant response rating (smallflower flatsedge; [11]): 0 | Ducksalad plant response rating (duck salad; [8]): 0 | Ducksalad plant response rating (duck salad; [9]): 0 | Ducksalad plant response rating (duck salad; [10]): 0 | Ducksalad plant response rating (duck salad; [11]): 0
